This is an account of results in patent US12435087B2, “Modulators of DCN-1 and methods of use thereof” (Cellarity, Inc., priority 2023, dated 2025).

Where two headings read alike, the source gives them in different places.

For orientation: IC50 means the point on the concentration scale where inhibition reaches its midpoint.

The target in this assay is DCN1 (DCUND1) protein PONY domain (Homo sapiens (Human), UniProt Q96GG9). Put plainly: TR-FRET assay (binding to DCN-1, displacement of FAM-labeled probe).
Chain of DCN1 (DCUND1) protein PONY domain (Q96GG9 60-248): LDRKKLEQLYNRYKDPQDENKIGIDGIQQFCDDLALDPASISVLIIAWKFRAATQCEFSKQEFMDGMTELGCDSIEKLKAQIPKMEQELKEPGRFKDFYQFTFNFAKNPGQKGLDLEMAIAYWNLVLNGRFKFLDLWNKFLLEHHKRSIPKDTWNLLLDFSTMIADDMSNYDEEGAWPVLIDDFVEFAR
Excerpt: (§1) The TR-FRET assay was designed following the Scott et al. protocol (Scott et al., Nat Chem Biol. 2017 August; 13(8): 850-857. doi:10.1038/nchembio.2386). The recombinant form of the DCN1 (DCUND1) protein PONY domain was produced using an E. coli expression system at Viva Biotech (China). The DCN1 protein was biotinylated (EZ sulfo-NHS-LC-biotin; Thermofisher) for labeling with streptavidin terbium (Tb) cryptate in the reaction. The probe was changed to a non-covalent DCN1 inhibitor labeled with carboxyfluorescein (FAM; Zhou et al., Nat Commun. 2017; 8: 1150. doi: 10.1038/s41467-017-01243-7). Buffer conditions were modified to enhance protein stability by exchanging Tween20 for TritonX and increasing NaCl to 200 mM. The compounds were screened against 5 nM DCN1 and 20 nM FAM-probe or 0.31 nM DCN1 and 900 nM total probe (100 nM FAM-labeled plus 800 nM unlabeled). The TR-FRET ratio between Tb-DCN1 and the FAM-labeled probe was measured in a 384-well opti-plate (Perkin Elmer) using a plate reader (BMG) at 1, 5, and 24 hrs after treatment with compound (final DMSO concentration of 0.1%). The ratio was normalized to the high (DCN1 and FAM-probe) and low (DCN1 and no probe) controls for a readout of % activity (=100*(x−low)/(high−low).
A TR-FRET assay was performed to evaluate the ability of the compounds to bind the DCN-1 protein.
as §1, with “850-857. Doi: 10.1038/nchembio.2386).” for “850-857. doi:10.1038/nchembio.2386).”, “the DCNI” for “the DCN1”, “1150. Doi:” for “1150. doi:”, “0.1%).” for “0.1%). The ratio was normalized to the high (DCN1 and FAM-probe) and low (DCN1 and no probe) controls for a readout of % activity (=100*(x−low)/(high−low).”
On the technique in general: Time-resolved FRET reads energy transfer from a long-lived donor to a nearby acceptor.

Where [1] appears, read: 24 hr after treatment with compound, read-out: TR FRET IC50 24 hr.
[2] abbreviates: TR FRET IC50 1 hr (nM), 1 hr after treatment with compound.
Where [3] appears, read: read-out: TR FRET IC50 1 hr, 1 hr after treatment with compound.

As for `C=C(CN1CCOCC1)C(=O)Nc1cccc([C@H]2c3c(C)nn(-c4ccccc4)c3N(CCO)C(=O)[C@@H]2NC(=O)c2cccc(C(F)(F)F)c2)c1` (racemic) [Compound I-147, rac-N-((4R,5S)-7-(2-hydroxyethyl)-3-methyl-4-(3-(2-(morpholinomethyl)acrylamido)phenyl)-6-oxo-1-phenyl-4,5,6,7-tetrahydro-1H-pyrazolo[3,4-b]pyridin-5-yl)-3-(trifluoromethyl)benzamide], the IC50 under setting [1] was ≤ 200 nM and the IC50 under setting [2] is ≤ 200 nM.

As to `C=C(C(=O)NCc1cccc([C@@H]2c3cnn(-c4ccccc4)c3N(CC)C(=O)[C@H]2NC(=O)c2ccn(C(F)(F)F)n2)c1)C(C)N1CC2CC(C1)O2` (stereo partly shown) [Compound I-287], the IC50 reads like this: under setting [1], ≤ 200 nM; under setting [3], ≤ 200 nM.

For the molecule `C=C(CN1CCOCC1)C(=O)NCc1cccc([C@H]2c3cnn(-c4ccccc4)c3N(CC)C(=O)[C@@H]2NC(=O)c2nccc(C(F)(F)F)n2)c1` [Compound I-43], the IC50 by setting is: under setting [1], 1000 to 3000 nM; under setting [2], 1000 to 3000 nM.

For the molecule `CCN1C(=O)[C@H](NC(=O)c2cccc(C(F)(F)F)c2)[C@@H](c2cccc(CNC(=O)C3=CCCN(C)C3)c2)c2cnn(-c3ccccc3)c21` [Compound I-106], the IC50 reads like this: under setting [1], 1000 to 3000 nM; under setting [2], 1000 to 3000 nM.

`CCN1C(=O)[C@H](NC(=O)c2cccc(C(F)(F)F)c2)[C@@H](c2cccc(N(C)C(=O)/C=C/CN(C)C)c2)c2cnn(-c3ccccc3)c21` (racemic) [Compound I-39]: the IC50 by setting is: under setting [1], 1000 to 3000 nM; under setting [2], 1000 to 3000 nM.

`C=C(C(=O)NCc1cccc([C@@H]2c3cnn(-c4ccccc4)c3N(CC)C(=O)[C@H]2NC(=O)c2ccn(C(F)(F)F)n2)c1)C(C)N1CCOCC1` (stereo partly shown) [Compound I-296]: the half-inhibitory concentration (IC50) under setting [1] is ≤ 200 nM and the IC50 under setting [3] was ≤ 200 nM.

`CCN1C(=O)[C@@H](NC(=O)c2cccc(C(F)(F)F)c2)[C@H](c2cccc(CNC(=O)C3=CCN(C)C3)c2)c2cnn(-c3ccccc3)c21` [Compound I-54]: the IC50 is ≤ 200 nM under setting [1] and 1000 to 3000 nM under setting [2].

Turning to `CCN1C(=O)[C@@H](NC(=O)c2cccc(C(F)(F)F)c2)[C@H](c2cccc(CNC#N)c2)c2c(C)nn(-c3ccccc3)c21` (racemic) [Compound I-138], the half-inhibitory concentration (IC50) by setting is: under setting [1], 200 to 1000 nM; under setting [2], 200 to 1000 nM.

Turning to `C=C(CN1CCN(C2COC2)CC1)C(=O)NCc1cccc([C@@H]2c3c(C)nn(-c4ccccc4)c3N(CC)C(=O)[C@H]2NC(=O)c2cccc(C(F)(F)F)c2)c1` [Compound I-353], the IC50 reads like this: under setting [1], ≤ 200 nM; under setting [3], ≤ 200 nM.

`CCN1C(=O)[C@@H](NC(=O)c2cccc(C(F)(F)F)c2)[C@H](c2cccc(CNC(=O)C3=C(C(=O)OC)CC3)c2)c2cnn(-c3ccccc3)c21` [Compound I-155]: the IC50 under setting [1] is ≤ 200 nM and the half-inhibitory concentration (IC50) under setting [2] is 1000 to 3000 nM.

Consider `CCN1C(=O)[C@@H](NC(=O)c2cccc(C(F)(F)F)c2)[C@H](c2cccc(CNC/C=C/C(=O)N(C)C)c2)c2cnn(-c3ccccc3)c21` [Compound I-372], for which the IC50 is 200 to 1000 nM under setting [1] and 1000 to 3000 nM under setting [2].

Turning to `Cc1nn(-c2ccccc2)c2c1[C@H](c1cccc(NC(=O)C3=CCC3)c1)[C@@H](NC(=O)c1cccc(C(F)(F)F)c1)C(=O)N2CCO` (racemic) [Compound I-92, rac-N-((4R,5S)-4-(3-(cyclobut-1-ene-1-carboxamido)phenyl)-7-(2-hydroxyethyl)-3-methyl-6-oxo-1-phenyl-4,5,6,7-tetrahydro-1H-pyrazolo[3,4-b]pyridin-5-yl)-3-(trifluoromethyl)benzamide], the IC50 runs as follows: under setting [1], 1000 to 3000 nM; under setting [2], 1000 to 3000 nM.

As to `C/C=C(\CN(C)C1COC1)C(=O)NCc1cccc([C@@H]2c3cnn(-c4ccccc4)c3N(CC)C(=O)[C@H]2NC(=O)c2csc(C(F)(F)F)n2)c1` [Compound I-365], the half-inhibitory concentration (IC50) reads like this: under setting [1], ≤ 200 nM; under setting [2], 200 to 1000 nM.

Take `C/C=C(/C(=O)Nc1cccc([C@@H]2c3cnn(-c4ccccc4)c3N(CC)C(=O)[C@H]2NC(=O)c2nccc(C(F)(F)F)n2)c1)C(C)N1CCC1` (stereo partly shown) [Compound I-385]: the IC50 is, setting by setting: under setting [1], 1000 to 3000 nM; under setting [2], 1000 to 3000 nM.

In the case of `CCN1C(=O)[C@@H](NC(=O)c2nccc(C(F)(F)F)n2)[C@H](c2cccc(NC(=O)C3=CCN(C)C3)c2)c2c(C)nn(-c3ccccc3)c21` [Compound I-37], the IC50 under setting [1] was ≤ 200 nM and the IC50 under setting [3] was ≤ 200 nM.

In the case of `C=C(CN1CCC12COC2)C(=O)N(C)Cc1cccc([C@@H]2c3cnn(-c4ccccc4)c3N(CC)C(=O)[C@H]2NC(=O)c2ccn(C(F)(F)F)n2)c1` [Compound I-371], the IC50 under setting [1] lay within 200 to 1000 nM and the IC50 under setting [2] fell in the range of 1000 to 3000 nM.

Regarding `C=C(CN1CCN(C2COC2)CC1)C(=O)N[C@H](C)c1cccc([C@@H]2c3cnn(-c4ccccc4)c3N(CC)C(=O)[C@H]2NC(=O)c2nccc(C(F)(F)F)n2)c1` (mixture of isomers) [Compound I-366], the IC50 under setting [1] lay in the range of 1000 to 3000 nM and the IC50 under setting [2] lay in the range of 1000 to 3000 nM.

As to `C/C=C/S(=O)(=O)Nc1cccc([C@H]2c3c(C)nn(-c4ccccc4)c3N(CC)C(=O)[C@@H]2NC(=O)c2cccc(C(F)(F)F)c2)c1` (racemic) [Compound I-131], the IC50 by setting is: under setting [1], ≤ 200 nM; under setting [2], 200 to 1000 nM.

Take `C=C(CN1CC2(COC2)C1)C(=O)NCc1cccc([C@H]2c3cnn(-c4ccccc4)c3N(CC)C(=O)[C@H]2NC(=O)c2cccc(C(F)(F)F)c2)c1` [Compound I-156]: the concentration for half-maximal inhibition (IC50) is, setting by setting: under setting [1], 200 to 1000 nM; under setting [2], 1000 to 3000 nM.

Consider `CCN1C(=O)[C@@H](NC(=O)c2cccc(C(F)(F)F)c2)[C@H](c2cccc(CNC(=O)C3=CCC3)c2)c2cnn(-c3ccccc3)c21` (racemic) [Compound I-126], for which the concentration for half-maximal inhibition (IC50) under setting [1] lay in the range of 1000 to 3000 nM and the IC50 under setting [2] lay in the range of 1000 to 3000 nM.

Regarding `C=C(CN1CC2CC(C1)O2)C(=O)NCc1cccc([C@@H]2c3cnn(-c4ccccc4)c3N(CC)C(=O)[C@H]2NC(=O)c2cccc(C(F)(F)F)c2)c1` [Compound I-290], the half-inhibitory concentration (IC50) was ≤ 200 nM under setting [1] and ≤ 200 nM under setting [3].

Take `C=C(CC(=O)OC)C(=O)NCc1cccc([C@H]2c3cnn(-c4ccccc4)c3N(CC)C(=O)[C@@H]2NC(=O)c2cccc(C(F)(F)F)c2)c1` [Compound I-121]: the concentration for half-maximal inhibition (IC50) is, setting by setting: under setting [1], 1000 to 3000 nM; under setting [2], 1000 to 3000 nM.

As for `C=C(CN1CC2CC1C2)C(=O)NCc1cccc([C@@H]2c3cnn(-c4ccccc4)c3N(CC)C(=O)[C@H]2NC(=O)c2cccc(C(F)(F)F)c2)c1` [Compound I-13], the IC50 is ≤ 200 nM under setting [1] and ≤ 200 nM under setting [3].

`CCN1C(=O)[C@@H](NC(=O)c2cccc(C(F)(F)F)c2)[C@H](c2cccc(CNC(=O)/C=C/C(=O)OC)c2)c2cnn(-c3ccccc3)c21` (racemic) [Compound I-143]: the concentration for half-maximal inhibition (IC50) under setting [1] fell in the range of 200 to 1000 nM and the IC50 under setting [2] lay within 1000 to 3000 nM.

With `C=CC(=O)N(C)c1ccccc1[C@H]1c2cnn(-c3ccccc3)c2N(CC)C(=O)[C@@H]1NC(=O)c1cccc(C(F)(F)F)c1` (racemic) [Compound I-97, ˜{N}—[˜{rac}-(4˜{S},5˜{R})-7-ethyl-4-[2-[methyl(prop-2-enoyl)amino]phenyl]-6-oxo-1-phenyl-4,5-dihydropyrazolo[3,4-b]pyridin-5-yl]-3-(trifluoromethyl)benzamide], the IC50 lay within 1000 to 3000 nM under setting [1] and 1000 to 3000 nM under setting [2].

In the case of `C/C=C(\CN1CCC1)C(=O)NCc1cccc([C@@H]2c3cnn(-c4ccccc4)c3N(CC)C(=O)[C@H]2NC(=O)c2cccc(C(F)(F)F)c2)c1` [Compound I-341], the IC50 runs as follows: under setting [1], ≤ 200 nM; under setting [2], 200 to 1000 nM.

Turning to `C/C=C(\CN1CC2(COC2)C1)C(=O)N(C)Cc1cccc([C@@H]2c3cnn(-c4ccccc4)c3N(CC)C(=O)[C@H]2NC(=O)c2ccn(C(F)(F)F)n2)c1` [Compound I-321], the IC50 runs as follows: under setting [1], 1000 to 3000 nM; under setting [2], 1000 to 3000 nM.

For the molecule `CCN1C(=O)[C@@H](NC(=O)c2cccc(C(F)(F)F)c2)[C@H](c2cccc(CN(C)C/C=C/C(=O)N3CCCC3)c2)c2cnn(-c3ccccc3)c21` [Compound I-255], the IC50 by setting is: under setting [1], 1000 to 3000 nM; under setting [2], 1000 to 3000 nM.

In the case of `CCN1C(=O)[C@@H](NC(=O)c2cccc(C(F)(F)F)c2)[C@H](c2cccc(NC(=O)C3=C(C(=O)OC)CCC3)c2)c2c(C)nn(-c3ccccc3)c21` (racemic) [Compound I-117], the IC50 is, setting by setting: under setting [1], 1000 to 3000 nM; under setting [2], 1000 to 3000 nM.
